Measured values from US10940135B2, “Paclitaxel pharmaceutical composition and pharmaceutical preparation thereof, preparation process and use thereof” (Sinotherapeutics Inc., priority 2016, dated 2021).
Converted amounts (≈) assume the structure as drawn.

Assays:
[1] = cited from earlier work
[2] = cited from earlier work; remark: listed apart in the source
[3] = reported as 0.1˜<10 μg/ml; cited from earlier work
[4] = Apparent solubility determination in pH 6.8 phosphate buffer; assay type: physicochemical
Method: Apparent solubility determination: an excessive amount of the pharmaceutical compositions was weighed and put into a container. Phosphate buffer solution with pH6.8 was added respectively. The volume of the phosphate buffer solution was about 2/3 of volume of the container. The container was then shaken in a shaking table at 37° C. for 3 h. The resulting solution was filtered with a 0.45 μm filter membrane, then the filtrate was collected, further diluted with an appropriate amount of methanol, mixed by vortex and analyzed by HPLC.
Wherein the HPLC analysis parameters are as follows: […]

[5] = Dissolution determination (USP II method, pH 6.8 buffer + 0.2% Tween 80); assay type: physicochemical; settings: pH 6.8 buffer + 0.2% Tween 80, 100 rpm, 37.5° C.
Excerpt: Dissolution Determination:
Wherein pH6.8 represents the environment simulating the human intestinal tract (small intestine).
Analysis of dissolved sample: the solution obtained in the dissolution determination test was filtered with a 0.45 μm filter membrane, then the filtrate was collected, further diluted with an appropriate amount of methanol, mixed by vortex and analyzed by HPLC. The HPLC analysis method of the dissolved sample was the same as the HPLC analysis method mentioned above in the solubility determination.

- Ratio of solubility (composition/bulk drug) [4]: 1
- solubility at 3 h ([4]; aqueous buffer, thermodynamic from solid, apparent solubility, 37° C., shaken 3 h): 4 µg/mL (≈ 4.68 µM)
- Dissolution % ([5]; 15 min): 13.1%
- Dissolution % ([5]; 30 min): 14.5%
- Dissolution % ([5]; 45 min): 14.6%
- Dissolution % ([5]; 60 min): 14.8%
- Dissolution % ([5]; 120 min): 14.1%
SMILES: CC(=O)O[C@H]1C(=O)[C@@]2(C)[C@H]([C@H](OC(=O)c3ccccc3)[C@]3(O)C[C@H](OC(=O)[C@H](O)[C@@H](NC(=O)c4ccccc4)c4ccccc4)C(C)=C1C3(C)C)[C@]1(OC(C)=O)CO[C@@H]1C[C@@H]2O [Bulk drug, 5β,20-epoxy-1,2α,4,7β,10β,13α-hexahydroxytaxane-11-ene-9-one-4,10-diacetate-2-benzoate-13[(2′R,3′S)—N-benzoyl-3-phenylisoserine ester]]
- oral bioavailability [1]: about 2%
- pKa [2]: 11.99
- solubility in water [3]: lower than 10 μg/ml
